Test results from ChEMBL document CHEMBL1133313, “Syntheses and antifungal activity of pseudomycin side-chain analogues. Part 1” (2000).
Values after ≈ are worked out from the molar mass of the structure shown. Positions of bridges follow the written chain, without caps; N, C: chain ends. Non-standard residues stand in square brackets, D forms with d. Residues, ends and D or L forms follow the SMILES beside them. *: point of attachment. Tetradecanoyl(3R-OH) = CCCCCCCCCCC[C@@H](O)CC(=O)*; Asp(3S-OH) = N[C@H](C(=O)O)[C@H](O)C(=O)O; Thr(4-Cl) = N[C@H](C(=O)O)[C@H](O)CCl; aThr = C[C@H](O)[C@H](N)C(=O)O; dDab = NCC[C@@H](N)C(=O)O; Dab = NCC[C@H](N)C(=O)O; Dhb = C/C=C(\N)C(=O)O

Tests used:
Assay type in all cases: functional
[1] = system: Candida albicans; test: Lowest concentration required to inhibit 90-100% of the visible growth of Candida albicans when compared to controls
[2] = system: Aspergillus fumigatus; test: Lowest concentration required to inhibit the growth of Aspergillus fumigatus
[3] = system: Candida albicans; test: Lowest concentration required to inhibit 90-100% of the visible growth of Candida albicans when compared to control; Range is 0.312-0.625

Row | Compound | MIC [1] [µg/mL] | MIC [2] [µg/mL] | MIC [3] [µg/mL]
1 | C/C=C1\NC(=O)[C@H]([C@H](C)O)NC(=O)[C@@H](CCN)NC(=O)[C@@H](CCCCN)NC(=O)[C@@H](CC(=O)O)NC(=O)[C@@H](CCN)NC(=O)[C@@H](NC(=O)C[C@@H](O)c2cccc(CCCCCCCC)c2)COC(=O)[C@@H]([C@H](O)CCl)NC(=O)[C@H]([C@H](O)C(=O)O)NC1=O | > 20 | > 20 | –
2 | C/C=C1\NC(=O)[C@H]([C@H](C)O)NC(=O)[C@@H](CCN)NC(=O)[C@@H](CCCCN)NC(=O)[C@@H](CC(=O)O)NC(=O)[C@@H](CCN)NC(=O)[C@@H](NC(=O)C[C@H](O)c2cccc(CCCCCCCCCCCC)c2)COC(=O)[C@@H]([C@H](O)CCl)NC(=O)[C@H]([C@H](O)C(=O)O)NC1=O | 1.25 (≈ 0.963 µM) | 2.5 (≈ 1.93 µM) | –
3 | C/C=C1\NC(=O)[C@H]([C@H](C)O)NC(=O)[C@@H](CCN)NC(=O)[C@@H](CCCCN)NC(=O)[C@@H](CC(=O)O)NC(=O)[C@@H](CCN)NC(=O)[C@@H](NC(=O)C[C@@H](O)c2cccc(CCCCCCCCCCCC)c2)COC(=O)[C@@H]([C@H](O)CCl)NC(=O)[C@H]([C@H](O)C(=O)O)NC1=O | 5 (≈ 3.85 µM) | > 20 | –
4 | C/C=C1\NC(=O)[C@H]([C@H](C)O)NC(=O)[C@@H](CCN)NC(=O)[C@@H](CCCCN)NC(=O)[C@@H](CC(=O)O)NC(=O)[C@@H](CCN)NC(=O)[C@@H](NC(=O)C[C@@H](O)c2cccc(OCCCCCCCCCCC)c2)COC(=O)[C@@H]([C@H](O)CCl)NC(=O)[C@H]([C@H](O)C(=O)O)NC1=O | 10 (≈ 7.69 µM) | > 20 | –
5 | C/C=C1\NC(=O)[C@H]([C@H](C)O)NC(=O)[C@@H](CCN)NC(=O)[C@@H](CCCCN)NC(=O)[C@@H](CC(=O)O)NC(=O)[C@@H](CCN)NC(=O)[C@@H](NC(=O)C[C@@H](O)CCc2cccc(OCCCCC)c2)COC(=O)[C@@H]([C@H](O)CCl)NC(=O)[C@H]([C@H](O)C(=O)O)NC1=O | > 20 | > 20 | –
6 | C/C=C1\NC(=O)[C@H]([C@H](C)O)NC(=O)[C@@H](CCN)NC(=O)[C@@H](CCCCN)NC(=O)[C@@H](CC(=O)O)NC(=O)[C@@H](CCN)NC(=O)[C@@H](NC(=O)C[C@H](O)CCc2cccc(OCCCCC)c2)COC(=O)[C@@H]([C@H](O)CCl)NC(=O)[C@H]([C@H](O)C(=O)O)NC1=O | > 20 | > 20 | –
7 | C/C=C1\NC(=O)[C@H]([C@@H](C)O)NC(=O)[C@@H](CCN)NC(=O)[C@@H](CCCCN)NC(=O)[C@@H](CC(=O)O)NC(=O)[C@@H](CCN)NC(=O)[C@@H](NC(=O)C[C@H](O)c2cccc(OCCCCCCCCCCC)c2)COC(=O)[C@@H]([C@H](O)CCl)NC(=O)[C@H]([C@H](O)C(=O)O)NC1=O | 0.625 (≈ 0.481 µM) | > 20 | –
8 | C/C=C1\NC(=O)[C@H]([C@@H](C)O)NC(=O)[C@@H](CCN)NC(=O)[C@@H](CCCCN)NC(=O)[C@@H](CC(=O)O)NC(=O)[C@@H](CCN)NC(=O)[C@@H](NC(=O)C[C@H](O)c2cccc(CCCCCCCC)c2)COC(=O)[C@@H]([C@H](O)CCl)NC(=O)[C@H]([C@H](O)C(=O)O)NC1=O | 5 (≈ 4.03 µM) | > 20 | –
9 | C/C=C1\NC(=O)[C@H]([C@@H](C)O)NC(=O)[C@@H](CCN)NC(=O)[C@@H](CCCCN)NC(=O)[C@@H](CC(=O)O)NC(=O)[C@@H](CCN)NC(=O)[C@@H](NC(=O)CC(O)Cc2cccc(OCCCCCC)c2)COC(=O)[C@@H]([C@H](O)CCl)NC(=O)[C@H]([C@H](O)C(=O)O)NC1=O (stereo not given in full) | > 20 | > 20 | –
10 | C/C=C1\NC(=O)[C@H]([C@@H](C)O)NC(=O)[C@@H](CCN)NC(=O)[C@@H](CCCCN)NC(=O)[C@@H](CC(=O)O)NC(=O)[C@@H](CCN)NC(=O)[C@@H](NC(=O)CC(O)CCc2cccc(OCCCCCCCCC)c2)COC(=O)[C@@H]([C@H](O)CCl)NC(=O)[C@H]([C@H](O)C(=O)O)NC1=O (stereo not given in full) | 20 (≈ 15.4 µM) | > 20 | –
11 | C/C=C1\NC(=O)[C@H]([C@@H](C)O)NC(=O)[C@@H](CCN)NC(=O)[C@@H](CCCCN)NC(=O)[C@@H](CC(=O)O)NC(=O)[C@@H](CCN)NC(=O)[C@@H](NC(=O)CC(O)CCc2cccc(OCCCCCCC)c2)COC(=O)[C@@H]([C@H](O)CCl)NC(=O)[C@H]([C@H](O)C(=O)O)NC1=O (stereo not given in full) | 10 (≈ 7.86 µM) | > 20 | –
12 | C/C=C1\NC(=O)[C@H]([C@@H](C)O)NC(=O)[C@@H](CCN)NC(=O)[C@@H](CCCCN)NC(=O)[C@@H](CC(=O)O)NC(=O)[C@@H](CCN)NC(=O)[C@@H](NC(=O)CC(O)Cc2cccc(OCCCCCCCCCC)c2)COC(=O)[C@@H]([C@H](O)CCl)NC(=O)[C@H]([C@H](O)C(=O)O)NC1=O (stereo not given in full) | 15 (≈ 11.5 µM) | > 20 | –
13 | C/C=C1\NC(=O)[C@H]([C@@H](C)O)NC(=O)[C@@H](CCN)NC(=O)[C@@H](CCCCN)NC(=O)[C@@H](CC(=O)O)NC(=O)[C@@H](CCN)NC(=O)[C@@H](NC(=O)CC(O)Cc2cccc(OCCCCCCCC)c2)COC(=O)[C@@H]([C@H](O)CCl)NC(=O)[C@H]([C@H](O)C(=O)O)NC1=O (stereo not given in full) | > 20 | > 20 | –
14 | C/C=C1\NC(=O)[C@H]([C@@H](C)O)NC(=O)[C@@H](CCN)NC(=O)[C@@H](CCCCN)NC(=O)[C@@H](CC(=O)O)NC(=O)[C@@H](CCN)NC(=O)[C@@H](NC(=O)CC(O)CCc2cccc(OCCCCC)c2)COC(=O)[C@@H]([C@H](O)CCl)NC(=O)[C@H]([C@H](O)C(=O)O)NC1=O (stereo not given in full) | > 20 | > 20 | –
15 | C/C=C1\NC(=O)[C@H]([C@H](C)O)NC(=O)[C@H](CCN)NC(=O)[C@H](CCCCN)NC(=O)[C@H](CC(=O)O)NC(=O)[C@@H](CCN)NC(=O)[C@@H](NC(=O)C[C@H](O)CCCCCCCCCCC)COC(=O)[C@H]([C@H](O)CCl)NC(=O)[C@H]([C@H](O)C(=O)O)NC1=O ({Tetradecanoyl(3R-OH)}-S[dDab]DK[Dab][aThr][Dhb][Asp(3S-OH)][Thr(4-Cl)]; ester 1-C) | – | > 20 | 0.625 (≈ 0.517 µM)
